Experimental data reported in patent publication US10189812B2, “Bi-benzyl isoquinoline derivative, preparation method and use thereof in hepatopathy treatment and prevention” (THE KEY LABORATORY OF CHEMISTRY FOR NATURAL PRODUCTS OF …, priority 2014, dated 2019).
Read-outs that look alike come from different tables or passages of the source.

Legend:
[1] = test system: PLC/PRF/5 liver cancer cell strains; assay: Tetrazolium salt reduction method (MTT) on human liver cancer cell strain PLC/PRF/5; format: cell-based
Experimental: 2. human liver cancer cell strains PLC/PRF/5 model discrimination
(§1) Tested methods: Tetrazolium salt reduction method (MTT)
(1) Inoculating cells: A uniform cell suspension was prepared with culture solution containing fetal calf serum (10%). The suspension was implanted into a 96-well cell culture disc by 1000-10000 cells/200 μL per well.
(§2) (2) Culturing cells: The cells were cultured for 3-5 days according to known methods in the art (culturing time depending on experiment objective and requirement).
(§3) (3) Colour response: The cells were cultured for 3-5 days, 20 μl of MTT solution (5 mg/mL, PBS <pH=7.4>) was added in each well, incubated for 4 h. Culture was terminated and the culture suspension was carefully sucked out. As for suspension cells, they need be centrifuged before suspension solution in wells was sucked out. 150 μL of DMSO was added in each well, vibrated for 10 min. The crystal was fully dissolved.
(§4) (4) Colorimetry: Light absorbance values in each well were measured by ELISA at 490 nm and the results were recorded. The cell growth curve was drawn with time as the abscissa and absorbance values as vertical coordinates.
Model principle: Dehydrogenase related to NADP exists in mitochondria of living cell. Yellow MIT is reduced to insoluble blue-purple Formanzan. Dehydrogenase is disappeared in dead cell and MIT can not be reduced. According to reduction extent, action effect of sample on tumor cell is defected.

[2] = test system: MHCC97L liver cancer cell strains; assay: Tetrazolium salt reduction method (MTT) on human liver cancer cell strain MHCC97L; format: cell-based
Experimental: 3. human liver cancer cell strains MHCC97L model discrimination
as §1
(1) Inoculating cells: Inoculating cells: A uniform cell suspension was prepared with culture solution containing fetal calf serum (10%). The suspension was implanted into a 96-well cell culture disc by 1000-10000 cells/200 μL per well.
as §2, §3, §4
Model principle: Dehydrogenase related to NADP exists in mitochondria of living cell. Yellow MTT is reduced to insoluble blue-purple Formanzan. Dehydrogenase is disappeared in dead cell and MTT can not be reduced. According to reduction extent, action effect of sample on tumor cell is defected.

[3] = Homo sapiens, PLC-PRF-5, read-out: PLC/PRF/5 IC50 (μM)
[4] = Homo sapiens, MHCC97L, read-out: MHCC97L IC50 (μM)
[5] = MTT, cells cultured 3-5 days, read-out: PLC/PRF/5 IC50
[6] = MTT, cells cultured 3-5 days, read-out: MHCC97L IC50
[7] = Homo sapiens, PLC-PRF-5, MTT, cells cultured 3-5 days, read-out: PLC/PRF/5 IC50
[8] = Homo sapiens, MHCC97L, MTT, cells cultured 3-5 days, read-out: MHCC97L IC50

| IC50 [1, 5] [µM] | IC50 [2, 6] [µM] | IC50 [1, 7] [µM] | IC50 [2, 8] [µM] | Structure (SMILES) | other results |
| --- | --- | --- | --- | --- | --- |
| – | – | – | – | COc1cc(NC(C)=O)c2cc1Oc1ccc(cc1)C[C@H]1c3cc(c(OC)cc3CCN1C)Oc1c(OC)c(OC)cc3c1[C@H](C2)N(C)CC3 [Compound H-01] | IC50 [1, 3]: 12.3 µM; IC50 [2, 4]: 12.9 µM |
| 5.4 | 12.2 | – | – | COc1ccc(C(=O)Nc2cc(OC)c3cc2C[C@H]2c4c(cc(OC)c(OC)c4Oc4cc5c(cc4OC)CCN(C)[C@H]5Cc4ccc(cc4)O3)CCN2C)cc1 [Compound H-04] | – |
| 4.6 | 1.4 | – | – | COc1cc(NC(=O)OCC(C)C)c2cc1Oc1ccc(cc1)C[C@H]1c3cc(c(OC)cc3CCN1C)Oc1c(OC)c(OC)cc3c1[C@H](C2)N(C)CC3 [Compound H-08] | – |
| – | – | 10.1 | 9.1 | COc1cc(NC(=O)CO)c2cc1Oc1ccc(cc1)C[C@H]1c3cc(c(OC)cc3CCN1C)Oc1c(OC)c(OC)cc3c1[C@H](C2)N(C)CC3 [Compound H-12] | – |
| 10.1 | 8.4 | – | – | COc1cc(NC(=O)COC(C)=O)c2cc1Oc1ccc(cc1)C[C@H]1c3cc(c(OC)cc3CCN1C)Oc1c(OC)c(OC)cc3c1[C@H](C2)N(C)CC3 [Compound H-13] | – |
| 12.7 | 7.9 | – | – | COC(=O)C(=O)Nc1cc(OC)c2cc1C[C@H]1c3c(cc(OC)c(OC)c3Oc3cc4c(cc3OC)CCN(C)[C@H]4Cc3ccc(cc3)O2)CCN1C [Compound H-14] | – |
| – | – | 4.6 | 9.8 | COc1cc(NS(C)(=O)=O)c2cc1Oc1ccc(cc1)C[C@H]1c3cc(c(OC)cc3CCN1C)Oc1c(OC)c(OC)cc3c1[C@H](C2)N(C)CC3 [Compound H-17] | – |
| 10.7 | 9.1 | – | – | COc1cc(NS(=O)(=O)c2ccccc2)c2cc1Oc1ccc(cc1)C[C@H]1c3cc(c(OC)cc3CCN1C)Oc1c(OC)c(OC)cc3c1[C@H](C2)N(C)CC3 [Compound H-18] | – |
| 10.8 | 11.3 | – | – | COc1cc(NS(=O)(=O)c2ccccc2[N+](=O)[O-])c2cc1Oc1ccc(cc1)C[C@H]1c3cc(c(OC)cc3CCN1C)Oc1c(OC)c(OC)cc3c1[C@H](C2)N(C)CC3 [Compound H-21] | – |
| 2.1 | 5.6 | – | – | COc1cc(NS(=O)(=O)c2ccc(Cl)cc2Cl)c2cc1Oc1ccc(cc1)C[C@H]1c3cc(c(OC)cc3CCN1C)Oc1c(OC)c(OC)cc3c1[C@H](C2)N(C)CC3 [Compound H-22] | – |
| – | – | – | – | COc1cc([N+](=O)[O-])c2cc1Oc1ccc(cc1)C[C@H]1c3cc(c(OC)cc3CCN1C)Oc1c(OC)c(OC)cc3c1[C@H](C2)N(C)CC3 [Compound H-27] | IC50 [1, 3]: 2.9 µM; IC50 [2, 4]: 1.9 µM |
| – | – | 14.8 | 10.1 | COc1cc(N)c2cc1Oc1ccc(cc1)C[C@H]1c3cc(c(OC)cc3CCN1C)Oc1c(OC)c(OC)cc3c1[C@H](C2)N(C)CC3 [Compound H-29] | – |
| – | – | – | 10.7 | COc1cc(N=O)c2cc1Oc1ccc(cc1)C[C@H]1c3cc(c(OC)cc3CCN1C)Oc1c(OC)c(OC)cc3c1[C@H](C2)N(C)CC3 [Compound H-30] | – |
| – | – | – | – | COc1ccc2cc1Oc1ccc(cc1)C[C@H]1c3cc(c(OC)cc3CCN1C)Oc1c(OCc3ccccc3)c(OC)cc3c1[C@H](C2)[N+](C)(Cc1ccccc1)CC3 (some centres unmarked) [Compound H-31] | IC50 [1, 3]: 12.7 µM; IC50 [2, 4]: 12.7 µM |
| – | – | 8.9 | 1.26 | COc1cc([N+](=O)[O-])c2cc1Oc1ccc(cc1)C[C@H]1c3cc(c(OC)cc3CCN1C)Oc1c(OCc3ccccc3)c(OC)cc3c1[C@H](C2)N(C)CC3 [Compound H-32] | – |
| – | – | 9.3 | – | COc1cc([N+](=O)[O-])c2cc1Oc1ccc(cc1)C[C@H]1c3cc(c(OC)cc3CCN1C)Oc1c(OC(=O)c3ccccc3)c(OC)cc3c1[C@H](C2)N(C)CC3 [Compound H-33] | – |

| IC50 [1, 5] [µM] | IC50 [2, 6] [µM] | IC50 [1, 7] [µM] | IC50 [2, 8] [µM] | Structure (SMILES) | other results |
| --- | --- | --- | --- | --- | --- |
| – | – | 7.8 | 6.6 | COc1cc(N)c2cc1Oc1ccc(cc1)C[C@H]1c3cc(c(OC)cc3CCN1C)Oc1c(OC(=O)c3ccccc3)c(OC)cc3c1[C@H](C2)N(C)CC3 [Compound H-34] | – |
| – | – | 11.9 | 12.1 | COc1cc2c3cc1Oc1c(OC)c(OC)c(Br)c4c1[C@H](Cc1c([N+](=O)[O-])cc(OC)c(c1Br)Oc1ccc(cc1)C[C@@H]3N(C)CC2)N(C)CC4 [Compound H-36] | – |
| – | – | 7.6 | 7.3 | C=C(OC)/C(OC)=C1/Oc2cc3c(cc2OC)CCN(C)[C@H]3Cc2ccc(cc2)Oc2cc(c(S(=O)(=O)O)cc2OC)C[C@H]2C1=CCCN2C [Compound H-37] | – |
| – | – | 10.2 | 10.7 | COc1cc(S(=O)(=O)Nc2ccccc2)c2cc1Oc1ccc(cc1)C[C@H]1c3cc(c(OC)cc3CCN1C)Oc1c(OC)c(OC)cc3c1[C@H](C2)N(C)CC3 [Compound H-38] | – |
| – | – | 8.1 | 9.9 | COc1cc(S(=O)(=O)OC)c2cc1Oc1ccc(cc1)C[C@H]1c3cc(c(OC)cc3CCN1C)Oc1c(OC)c(OC)cc3c1[C@H](C2)N(C)CC3 [Compound H-39] | – |
| – | – | 9 | 8.6 | COc1cc2c3cc1Oc1c(OC)c(OC)c(Br)c4c1[C@H](Cc1c(S(=O)(=O)O)cc(OC)c(c1Br)Oc1ccc(cc1)C[C@@H]3N(C)CC2)N(C)CC4 [Compound H-41] | – |
| – | – | 3.4 | 9.6 | COc1ccc2cc1Oc1ccc(cc1)C[C@H]1c3cc(c(OC)cc3CCN1C)Oc1c(ON=O)c(OC)cc3c1[C@H](C2)N(C)CC3 [Compound H-42] | – |
| – | – | 8.1 | 8.8 | COc1cc([N+](=O)[O-])c2cc1Oc1ccc(cc1)C[C@H]1c3cc(c(OC)cc3CCN1C)Oc1c(OC)c(OC)c(Cl)c3c1[C@H](C2)N(C)CC3 [Compound H-43] | – |
| – | – | 11.7 | 8.9 | COc1cc(S(=O)(=O)O)c2cc1Oc1ccc(cc1)C[C@H]1c3cc(c(OC)cc3CCN1C)Oc1c(OC(=O)c3ccccc3)c(OC)cc3c1[C@H](C2)N(C)CC3 [Compound H-45] | – |
| – | – | – | – | COc1ccc2cc1Oc1ccc(cc1)C[C@H]1c3cc(c(OC)cc3CCN1C)Oc1c(OC(C)=O)c(OC)c(Br)c3c1[C@H](C2)N(C)CC3 [Compound H-48] | IC50 [1, 3]: 0.5 µM; IC50 [2, 4]: 4.1 µM |
| – | – | – | – | COc1cc(Br)c2cc1Oc1ccc(cc1)C[C@H]1c3cc(c(OC)cc3CCN1C)Oc1c(OC(C)=O)c(OC)c(Br)c3c1[C@H](C2)N(C)CC3 [Compound H-49] | IC50 [1, 3]: 2.4 µM; IC50 [2, 4]: 8.7 µM |
| – | – | – | – | COc1cc2c3cc1Oc1c(OC(C)=O)c(OC)c(Cl)c4c1[C@H](Cc1c(Cl)cc(OC)c(c1Cl)Oc1ccc(cc1)C[C@@H]3N(C)CC2)N(C)CC4 [Compound H-51] | IC50 [1, 3]: 1.4 µM; IC50 [2, 4]: 10.4 µM |
| 6.7 | 9.7 | – | – | COc1cc([N+](=O)[O-])c2cc1Oc1ccc(cc1)C[C@H]1c3cc(c(OC)cc3CCN1C)Oc1c(OC(=O)c3ccccc3)c(OC)cc3c1[C@H](C2)N(C)CC3 [Compound H-52] | – |
| – | – | 3.2 | 1.1 | COc1cc(S(=O)(=O)O)c2cc1Oc1ccc(cc1)C[C@H]1c3cc(c(OC)cc3CCN1C)Oc1c(O)c(OC)cc3c1[C@H](C2)N(C)CC3 [Compound H-53] | – |
| – | – | 3.2 | 0.4 | COc1cc(Cl)c2cc1Oc1ccc(cc1)C[C@H]1c3cc(c(OC)cc3CCN1C)Oc1c(OC)c(OC)c(Br)c3c1[C@H](C2)N(C)CC3 [Compound H-54] | – |
| – | 34.4 | 26.9 | 34.4 | CNC(=O)c1cc(Oc2ccc(NC(=O)Nc3ccc(Cl)c(C(F)(F)F)c3)cc2)ccn1 [Sorafenib, reference compound] | – |

| Structure (SMILES) | IC50 [1, 5] [µM] | IC50 [2, 6] [µM] | IC50 [1, 7] [µM] | IC50 [2, 8] [µM] | other results |
| --- | --- | --- | --- | --- | --- |
| COc1cc([N+](=O)[O-])c2cc1Oc1ccc(cc1)C[C@H]1c3cc(c(OC)cc3CCN1C)Oc1c(OC)c(OC)c([N+](=O)[O-])c3c1[C@H](C2)N(C)CC3 [Compound H-28] | – | – | 20.1 | 8.1 | – |
| COc1cc(S(=O)(=O)O)c2cc1Oc1ccc(cc1)C[C@H]1c3cc(c(OC)cc3CCN1C)Oc1c(OC)c(OC)c(Br)c3c1[C@H](C2)N(C)CC3 [Compound H-40] | 10.5 | 9.2 | – | – | – |
| COc1cc2c3cc1Oc1c(OC)c(OC)c(Cl)c4c1[C@H](Cc1c([N+](=O)[O-])cc(OC)c(c1Cl)Oc1ccc(cc1)C[C@@H]3N(C)CC2)N(C)CC4 [Compound H-44] | 4.1 | 9.4 | – | – | – |
| COc1cc(Cl)c2cc1Oc1ccc(cc1)C[C@H]1c3cc(c(OC)cc3CCN1C)Oc1c(OC(C)=O)c(OC)c(Cl)c3c1[C@H](C2)N(C)CC3 [Compound H-50] | 9.8 | 3.3 | – | – | – |
